Patent publication US8796308B2, “Modulators of cystic fibrosis transmembrane conductance regulator” (Vertex Pharmaceuticals Incorporated, priority 2009, dated 2014)
Values after ≈ are worked out from the molar mass of the structure shown.

What was measured:
[1] = molecular target: T1, ΔF508-CFTR in NIH 3T3 cells (Homo sapiens, UniProt P13569, DEL508-508); assay: Membrane potential optical potentiator assay (FLIPR III); format: cell-based; details: temperature-corrected ΔF508 CFTR NIH 3T3 cells, forskolin
T1 construct: expressed in transfected cells
T1 sequence (P13569 with tags, fused parts or gaps DEL508-508): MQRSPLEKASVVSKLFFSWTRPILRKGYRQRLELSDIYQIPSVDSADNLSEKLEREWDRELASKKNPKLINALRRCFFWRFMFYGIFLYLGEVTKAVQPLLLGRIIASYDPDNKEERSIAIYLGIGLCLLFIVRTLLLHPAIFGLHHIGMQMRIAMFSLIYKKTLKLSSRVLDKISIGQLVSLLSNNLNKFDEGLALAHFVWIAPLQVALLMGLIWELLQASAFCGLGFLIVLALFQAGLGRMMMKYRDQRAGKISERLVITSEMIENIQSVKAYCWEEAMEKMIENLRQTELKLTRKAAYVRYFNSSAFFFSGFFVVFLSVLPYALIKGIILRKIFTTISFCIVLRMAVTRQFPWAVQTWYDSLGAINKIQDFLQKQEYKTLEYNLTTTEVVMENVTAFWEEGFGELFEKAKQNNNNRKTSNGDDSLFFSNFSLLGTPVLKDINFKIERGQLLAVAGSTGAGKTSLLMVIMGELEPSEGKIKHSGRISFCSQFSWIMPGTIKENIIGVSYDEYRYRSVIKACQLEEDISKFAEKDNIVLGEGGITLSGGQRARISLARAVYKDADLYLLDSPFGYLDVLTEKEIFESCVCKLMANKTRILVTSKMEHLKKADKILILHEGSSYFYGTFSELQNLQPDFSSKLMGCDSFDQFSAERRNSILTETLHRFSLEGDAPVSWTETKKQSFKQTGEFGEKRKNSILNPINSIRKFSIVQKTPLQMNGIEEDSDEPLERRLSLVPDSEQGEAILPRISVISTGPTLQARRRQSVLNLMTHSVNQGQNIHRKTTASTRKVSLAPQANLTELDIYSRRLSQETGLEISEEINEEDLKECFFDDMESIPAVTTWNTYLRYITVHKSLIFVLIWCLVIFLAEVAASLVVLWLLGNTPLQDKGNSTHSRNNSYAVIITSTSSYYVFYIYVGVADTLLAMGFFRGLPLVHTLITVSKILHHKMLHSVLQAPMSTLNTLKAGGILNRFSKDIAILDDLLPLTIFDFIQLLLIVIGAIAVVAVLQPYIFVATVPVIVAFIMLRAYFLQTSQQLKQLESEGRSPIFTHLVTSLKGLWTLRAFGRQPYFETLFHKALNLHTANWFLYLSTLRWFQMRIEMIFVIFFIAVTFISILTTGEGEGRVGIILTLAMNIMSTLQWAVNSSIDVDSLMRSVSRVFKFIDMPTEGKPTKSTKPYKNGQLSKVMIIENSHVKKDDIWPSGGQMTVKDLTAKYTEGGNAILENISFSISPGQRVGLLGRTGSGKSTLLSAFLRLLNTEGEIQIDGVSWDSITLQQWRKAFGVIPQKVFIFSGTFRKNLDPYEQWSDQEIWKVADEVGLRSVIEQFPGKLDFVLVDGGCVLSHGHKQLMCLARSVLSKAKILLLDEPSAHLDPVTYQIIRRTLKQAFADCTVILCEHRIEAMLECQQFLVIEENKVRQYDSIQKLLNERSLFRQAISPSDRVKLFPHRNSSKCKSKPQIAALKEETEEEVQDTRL
From the text: The assay utilizes fluorescent voltage sensing dyes to measure changes in membrane potential using a fluorescent plate reader (e.g., FLIPR III, Molecular Devices, Inc.) as a readout for increase in functional ΔF508-CFTR in NIH 3T3 cells. The driving force for the response is the creation of a chloride ion gradient in conjunction with channel activation by a single liquid addition step after the cells have previously been treated with compounds and subsequently loaded with a voltage sensing dye.
To identify potentiators of ΔF508-CFTR, a double-addition HTS assay format was developed. This HTS assay utilizes fluorescent voltage sensing dyes to measure changes in membrane potential on the FLIPR III as a measurement for increase in gating (conductance) of ΔF508 CFTR in temperature-corrected ΔF508 CFTR NIH 3T3 cells. The driving force for the response is a Cl^− ion gradient in conjunction with channel activation with forskolin in a single liquid addition step using a fluorescent plate reader such as FLIPR III after the cells have previously been treated with potentiator compounds (or DMSO vehicle control) and subsequently loaded with a redistribution dye.
Solutions • Bath Solution #1: (in mM) NaCl 160, KCl 4.5, CaCl2 2, MgCl2 1, HEPES 10, pH 7.4 with NaOH. • Chloride-free bath solution: Chloride salts in Bath Solution #1 are substituted with gluconate salts. […]

[2] = molecular target: Δ508/G551D-HBE (Homo sapiens, UniProt P13569, G551D); assay: Ussing chamber assay, Δ508/G551D-HBE; format: cell-based
Δ508/G551D-HBE, sequence (P13569 whole entry G551D, stated change not applied): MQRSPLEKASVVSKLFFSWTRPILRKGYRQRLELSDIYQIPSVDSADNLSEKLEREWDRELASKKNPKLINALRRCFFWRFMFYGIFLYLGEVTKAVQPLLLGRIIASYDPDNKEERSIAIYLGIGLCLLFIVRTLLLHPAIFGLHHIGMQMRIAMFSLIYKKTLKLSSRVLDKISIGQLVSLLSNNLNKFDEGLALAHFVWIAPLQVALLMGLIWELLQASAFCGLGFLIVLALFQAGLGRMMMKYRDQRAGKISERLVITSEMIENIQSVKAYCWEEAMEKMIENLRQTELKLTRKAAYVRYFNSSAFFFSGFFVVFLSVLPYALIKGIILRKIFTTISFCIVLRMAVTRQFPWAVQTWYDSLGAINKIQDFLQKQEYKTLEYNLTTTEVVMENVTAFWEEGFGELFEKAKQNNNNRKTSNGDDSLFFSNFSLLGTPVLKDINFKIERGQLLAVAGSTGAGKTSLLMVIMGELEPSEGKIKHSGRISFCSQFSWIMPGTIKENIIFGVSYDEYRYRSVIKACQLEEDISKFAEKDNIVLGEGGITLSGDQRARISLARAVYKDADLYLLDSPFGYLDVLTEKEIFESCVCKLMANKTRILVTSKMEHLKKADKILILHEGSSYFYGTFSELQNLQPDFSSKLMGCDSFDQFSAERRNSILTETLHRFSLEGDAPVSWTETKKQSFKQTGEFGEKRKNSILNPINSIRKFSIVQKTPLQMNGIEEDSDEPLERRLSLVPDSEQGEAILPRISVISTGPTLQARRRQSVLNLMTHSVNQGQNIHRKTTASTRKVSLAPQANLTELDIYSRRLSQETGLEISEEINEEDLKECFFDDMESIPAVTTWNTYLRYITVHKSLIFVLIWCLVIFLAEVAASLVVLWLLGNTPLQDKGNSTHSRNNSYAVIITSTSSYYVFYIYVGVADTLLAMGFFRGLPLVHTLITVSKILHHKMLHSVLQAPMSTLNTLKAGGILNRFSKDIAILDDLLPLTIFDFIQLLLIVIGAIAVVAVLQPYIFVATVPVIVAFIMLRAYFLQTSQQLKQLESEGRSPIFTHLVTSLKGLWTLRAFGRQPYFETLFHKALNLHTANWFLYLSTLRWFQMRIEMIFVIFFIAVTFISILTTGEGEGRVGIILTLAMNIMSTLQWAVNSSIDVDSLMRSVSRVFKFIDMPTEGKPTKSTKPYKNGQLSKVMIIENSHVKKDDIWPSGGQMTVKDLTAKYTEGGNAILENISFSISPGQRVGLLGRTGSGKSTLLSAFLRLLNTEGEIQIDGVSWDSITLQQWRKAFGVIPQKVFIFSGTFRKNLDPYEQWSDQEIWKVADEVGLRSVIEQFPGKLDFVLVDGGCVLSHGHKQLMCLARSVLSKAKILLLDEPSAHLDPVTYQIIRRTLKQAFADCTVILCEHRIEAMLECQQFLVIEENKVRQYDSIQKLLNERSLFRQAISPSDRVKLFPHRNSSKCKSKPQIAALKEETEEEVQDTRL
Δ508/G551D-HBE, sequence (P13569 whole entry G551D, stated change not applied): as above

[3] = HLM/RLM stability, % remaining at 30 min; format: in vitro ADME
[4] = molecular target: CaV 1.2 (Homo sapiens, UniProt Q13936); assay: CaV 1.2 inhibition
[5] = High throughput shake flask (HTSF) solubility at pH 7.4; format: physicochemical; details: aqueous buffer, kinetic from dmso stock; pH 7.4 phosphate buffer with 2% DMSO, shaken overnight
Experimental: A high throughput shake flask assay was used to determine solubility of compounds in pH 7.4 buffer. To calculate the concentration of compounds in solution, two conditions per compound were run: 300 uM in 100% DMSO and 200 uM in pH 7.4 phosphate buffer with 2% DMSO present. Each sample was left to shake overnight then injected onto HPLC-UV to determine peak area using the following conditions: Phenomenex 00A-4251-B0-30×2.00 mm Luna 3u C18(2) 100A column; 0.8 mL/min flow rate; 20 uL injection volume; HPLC grade water with 0.1% formic acid and HPLC grade acetonitrile with 0.1% formic acid mobile phases; peak area determined at 254 nm. Solubility in uM was calculated using the following equation: conc.=(peak area pH 7.4)/(peak area 300 uM DMSO standard condition)*300 uM concentration of standard condition. Peaks of interest were identified in buffer conditions based on retention time (RT) of the largest area peak in the 300 uM DMSO standard condition.

[6] = molecular target: T2, ΔF508-CFTR in HBE (Homo sapiens, UniProt P13569, DEL508-508); assay: Ussing chamber assay, Δ508-HBE; format: cell-based; details: HBE from patients homozygous for ΔF508-CFTR
T2 construct: CF-HBE were isolated from patients homozygous for ΔF508-CFTR; endogenous in cells; host or cells: primary bronchial epithelial cells (HBE) from CF patients homozygous for ΔF508
T2 sequence (P13569 with tags, fused parts or gaps DEL508-508): as the sequence (P13569 with tags, fused parts or gaps DEL508-508) above
Experimental: Ussing chamber experiments were performed on polarized airway epithelial cells expressing ΔF508-CFTR to further characterize the ΔF508-CFTR modulators identified in the optical assays. Non-CF and CF airway epithelia were isolated from bronchial tissue, cultured as previously described (Galietta, L. J. V., Lantero, S., Gazzolo, A., Sacco, O., Romano, L., Rossi, G. A., & Zegarra-Moran, O. (1998) In Vitro Cell. Dev. Biol. 34, 478-481), and plated onto Costar® Snapwell™ filters that were pre-coated with NIH3T3-conditioned media. After four days the apical media was removed and the cells were grown at an air liquid interface for >14 days prior to use. […] CF-HBE were isolated from patients homozygous for ΔF508-CFTR.
HBE grown on Costar® Snapwell™ cell culture inserts were mounted in an Ussing chamber (Physiologic Instruments, Inc., San Diego, Calif.), and the transepithelial resistance and short-circuit current in the presence of a basolateral to apical Cl^− gradient (ISC) were measured using a voltage-clamp system (Department of Bioengineering, University of Iowa, Iowa). Briefly, HBE were examined under voltage-clamp recording conditions (Vhold=0 mV) at 37° C. […]

EC50 [1] [nM] | EC50 [2] [nM] | solubility [5] [µM] | EC50 [6] [nM] | Compound | HLM/RLM (% remain. @ 30 min) [3] | IC50 [4] [nM]
< 2000 | < 2000 | 87 (≈ 35.5 µg/mL) | < 2000 | CC(C)(C)c1cc(C(C)(C)CO)c(O)cc1NC(=O)c1c[nH]c2ccccc2c1=O [Compound 27, N-(2-tert-butyl-5-hydroxy-4-(1-hydroxy-2-methylpropan-2-yl)phenyl)-4-oxo-1,4-dihydroquinoline-3-carboxamide] | ++ (“++” if efficacy was calculated to be from 100% to 25%) | > 5000
2000 to 5000 | 2000 to 5000 | > 200 | < 2000 | CC(C)(C)c1cc(C(C)(C)C(=O)O)c(O)cc1NC(=O)c1c[nH]c2ccccc2c1=O [Compound 28, 2-(5-tert-butyl-2-hydroxy-4-(4-oxo-1,4-dihydroquinoline-3-carboxamido)phenyl)-2-methylpropanoic acid] | +++ (“+++” if efficacy was calculated to be greater than 100%) | –
